# In patent US20250170248A1, “SMARCA DEGRADERS AND USES THEREOF” (Kymera Therapeutics, Inc., priority 2021, published 2025):
# Legend:
# Format in all cases: cell-based
# SMARCA4 = target: T1, SMARCA4 (Homo sapiens, UniProt P51532); experiment: SMARCA4 Western blot degradation in MV4-11 cells; conditions: for Dmax: MV4-11, MV4-11 cells, read-out: SMARCA4 MSD MV411 degradation 24 h: average Dmax %; for Dmax / DC50: 24 h; for DC50 / SMARCA4 MSD MV411 degradation 24 h: average Dmax %: MV4-11 cells; for DC50: read-out: SMARCA4 MSD MV411 degradation 24 h: Mean external-Abs DC50
# T1 construct: SMARCA2/SMARCA4 protein degradation selectivity in MV4-11 cells; endogenous in cells; host or cells: MV4-11
# T1 sequence (P51532 whole entry): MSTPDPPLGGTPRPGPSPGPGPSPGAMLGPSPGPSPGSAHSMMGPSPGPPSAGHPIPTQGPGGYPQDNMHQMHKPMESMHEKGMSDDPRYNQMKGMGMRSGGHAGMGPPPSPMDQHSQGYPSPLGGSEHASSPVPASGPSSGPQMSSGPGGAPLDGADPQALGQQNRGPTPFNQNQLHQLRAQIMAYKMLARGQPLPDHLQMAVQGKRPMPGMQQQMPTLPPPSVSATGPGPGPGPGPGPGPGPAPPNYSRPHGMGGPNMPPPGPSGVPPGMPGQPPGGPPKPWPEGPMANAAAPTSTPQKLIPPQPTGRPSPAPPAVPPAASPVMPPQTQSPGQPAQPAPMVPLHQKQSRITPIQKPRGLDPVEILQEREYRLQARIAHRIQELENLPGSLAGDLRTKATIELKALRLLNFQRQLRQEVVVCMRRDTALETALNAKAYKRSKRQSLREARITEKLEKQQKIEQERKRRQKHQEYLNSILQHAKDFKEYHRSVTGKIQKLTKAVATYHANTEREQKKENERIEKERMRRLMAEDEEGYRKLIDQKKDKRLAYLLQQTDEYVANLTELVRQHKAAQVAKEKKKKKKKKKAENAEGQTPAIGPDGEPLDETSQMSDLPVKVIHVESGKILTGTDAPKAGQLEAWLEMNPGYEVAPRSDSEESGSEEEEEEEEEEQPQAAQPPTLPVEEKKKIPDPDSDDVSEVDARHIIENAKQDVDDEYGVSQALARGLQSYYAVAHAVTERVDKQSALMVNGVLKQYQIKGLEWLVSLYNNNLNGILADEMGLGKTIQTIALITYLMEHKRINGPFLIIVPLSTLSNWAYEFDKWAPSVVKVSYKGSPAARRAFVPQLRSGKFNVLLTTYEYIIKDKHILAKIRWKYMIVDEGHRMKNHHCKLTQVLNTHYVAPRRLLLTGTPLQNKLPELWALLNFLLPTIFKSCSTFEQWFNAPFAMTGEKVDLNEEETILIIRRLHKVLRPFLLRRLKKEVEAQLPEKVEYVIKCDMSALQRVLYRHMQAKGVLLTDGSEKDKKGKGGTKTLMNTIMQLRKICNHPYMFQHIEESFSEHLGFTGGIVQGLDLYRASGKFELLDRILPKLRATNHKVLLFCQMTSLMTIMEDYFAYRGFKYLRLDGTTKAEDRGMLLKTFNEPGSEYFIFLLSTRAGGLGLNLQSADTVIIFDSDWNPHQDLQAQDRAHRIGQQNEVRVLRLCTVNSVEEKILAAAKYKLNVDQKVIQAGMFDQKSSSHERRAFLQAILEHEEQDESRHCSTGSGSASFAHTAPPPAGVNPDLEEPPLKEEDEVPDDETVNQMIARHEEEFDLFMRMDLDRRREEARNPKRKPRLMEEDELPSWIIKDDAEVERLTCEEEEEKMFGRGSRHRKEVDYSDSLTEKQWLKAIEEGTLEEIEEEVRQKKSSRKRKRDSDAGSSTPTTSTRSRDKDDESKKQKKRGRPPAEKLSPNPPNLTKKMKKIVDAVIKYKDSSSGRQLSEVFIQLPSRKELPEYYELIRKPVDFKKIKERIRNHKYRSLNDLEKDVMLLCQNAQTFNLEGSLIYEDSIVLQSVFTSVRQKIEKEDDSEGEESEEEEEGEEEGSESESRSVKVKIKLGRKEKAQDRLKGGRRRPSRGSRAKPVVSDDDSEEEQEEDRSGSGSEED
# How it was run: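 MV4-11 cells (4×10^6/well) treated with compound for 24 h, lysed in RIPA with protease/phosphatase inhibitors, and SMARCA2, SMARCA4 and beta-actin detected by Western blot with LI-COR readout. Values reported as letter-coded DC50, 24 h Dmax % and SMARCA2/4 selectivity fold.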
# SMARCA2 [1] = target: T2, SMARCA2 (Homo sapiens, UniProt P51531); experiment: MSD SMARCA2 degradation in A549 cell line; conditions: for Dmax: A549, A549 cells; for Dmax / DC50: 24 h; for DC50 / SMARCA2 MSD A549 degradation 24 h: Average Dmax %: A549 cells; for DC50: read-out: SMARCA2 MSD A549 degradation 24 h: Average external-Abs DC50
# T2 sequence (P51531 whole entry): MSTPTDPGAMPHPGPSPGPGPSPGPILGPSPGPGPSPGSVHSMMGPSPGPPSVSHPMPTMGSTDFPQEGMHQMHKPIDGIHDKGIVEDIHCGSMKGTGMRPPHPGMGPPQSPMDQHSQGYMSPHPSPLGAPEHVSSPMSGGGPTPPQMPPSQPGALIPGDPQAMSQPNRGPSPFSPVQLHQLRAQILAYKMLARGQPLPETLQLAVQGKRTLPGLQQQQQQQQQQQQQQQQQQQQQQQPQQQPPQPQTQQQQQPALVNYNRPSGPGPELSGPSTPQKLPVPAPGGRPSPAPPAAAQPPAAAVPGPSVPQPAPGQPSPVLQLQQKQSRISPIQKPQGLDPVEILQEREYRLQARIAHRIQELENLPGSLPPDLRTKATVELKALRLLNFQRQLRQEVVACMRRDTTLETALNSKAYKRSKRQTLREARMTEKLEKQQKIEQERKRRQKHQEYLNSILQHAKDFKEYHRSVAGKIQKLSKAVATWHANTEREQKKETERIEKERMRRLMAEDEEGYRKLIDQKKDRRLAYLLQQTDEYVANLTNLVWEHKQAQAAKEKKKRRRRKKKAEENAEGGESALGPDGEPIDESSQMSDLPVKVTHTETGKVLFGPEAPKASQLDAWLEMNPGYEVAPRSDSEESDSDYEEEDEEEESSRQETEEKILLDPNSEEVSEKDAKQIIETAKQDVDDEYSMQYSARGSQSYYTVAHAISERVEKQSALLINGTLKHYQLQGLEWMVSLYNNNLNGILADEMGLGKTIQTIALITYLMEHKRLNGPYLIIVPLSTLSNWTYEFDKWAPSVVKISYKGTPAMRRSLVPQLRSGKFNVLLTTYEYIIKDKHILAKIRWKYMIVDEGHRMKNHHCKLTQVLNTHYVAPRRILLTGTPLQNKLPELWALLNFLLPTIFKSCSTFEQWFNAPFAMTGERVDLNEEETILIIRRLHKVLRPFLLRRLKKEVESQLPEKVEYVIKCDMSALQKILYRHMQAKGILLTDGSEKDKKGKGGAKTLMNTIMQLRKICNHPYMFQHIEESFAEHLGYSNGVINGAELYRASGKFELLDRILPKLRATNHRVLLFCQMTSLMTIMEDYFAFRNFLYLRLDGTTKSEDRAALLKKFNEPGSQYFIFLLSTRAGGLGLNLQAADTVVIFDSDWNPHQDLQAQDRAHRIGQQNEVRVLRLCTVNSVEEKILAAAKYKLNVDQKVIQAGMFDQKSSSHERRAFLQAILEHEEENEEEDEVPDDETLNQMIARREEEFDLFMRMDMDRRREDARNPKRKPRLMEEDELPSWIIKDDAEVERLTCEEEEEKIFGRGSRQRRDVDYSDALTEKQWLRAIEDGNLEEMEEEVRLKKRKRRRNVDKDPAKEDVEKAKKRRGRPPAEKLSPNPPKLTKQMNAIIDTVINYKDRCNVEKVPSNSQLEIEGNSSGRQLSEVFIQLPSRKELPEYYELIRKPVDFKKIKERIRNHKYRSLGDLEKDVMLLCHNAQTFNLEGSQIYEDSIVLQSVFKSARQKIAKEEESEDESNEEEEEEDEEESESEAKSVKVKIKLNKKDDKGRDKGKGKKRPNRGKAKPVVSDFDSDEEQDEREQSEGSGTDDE
# How it was run: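 A549 cells treated 24 h with compound, 3-fold series from 1000 nM. Lysates captured on MSD plates and SMARCA2 quantified with anti-SMARCA2 and SULFO-TAG secondary antibodies (electrochemiluminescence). DC50 and Dmax (% degradation at 24 h) reported as letter bins.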
# SMARCA2 [2] = target: T2, SMARCA2; experiment: SMARCA2 Western blot degradation in MV4-11 cells; set-up: SMARCA2/SMARCA4 protein degradation selectivity in MV4-11 cells; endogenous in cells; host or cells: MV4-11; conditions: for Dmax: MV4-11, MV4-11 cells, read-out: SMARCA2 MSD MV411 degradation 24 h: average Dmax %; for Dmax / DC50 / SMARCA2 MSD MV411 degradation 24 h: average Dmax %: 24 h; for DC50 / Selectivity in MV411 / SMARCA2 MSD MV411 degradation 24 h: average Dmax %: MV4-11 cells; for DC50: read-out: SMARCA2 MSD MV411 degradation 24 h: Mean external-Abs DC50; for Selectivity in MV411: SMARCA2/4 selectivity
SMILES,Dmax (SMARCA4),DC50 (SMARCA4),Dmax (SMARCA2 [1]),DC50 (SMARCA2 [1]),Dmax (SMARCA2 [2]),DC50 (SMARCA2 [2]),Selectivity in MV411 (SMARCA2 [2]),SMARCA4 MSD MV411 degradation 24 h: average Dmax % (SMARCA4),SMARCA2 MSD A549 degradation 24 h: Average Dmax % (SMARCA2 [1]),SMARCA2 MSD MV411 degradation 24 h: average Dmax % (SMARCA2 [2])
"Cc1ncsc1-c1ccc(CNC(=O)[C@@H]2C[C@@H](O)CN2C(=O)C(c2cc(N3CC4(CCC(N5CCC(c6cnc(N7CCc8[nH]c9nnc(-c%10ccccc%10O)cc9c8[C@@H]7C)nc6)CC5)CC4)C3)no2)C(C)C)cc1 (single isomer, unassigned) [I-9]",70 to 90%,10 to 100 nM,70 to 90%,10 to 50 nM,> 90%,1 to 10 nM,C (C (10-100 fold)),–,–,–
C#Cc1c(F)cc(CNC(=O)[C@@H]2C[C@@H](O)CN2C(=O)[C@@H](NC(=O)N2CC3(CC(N4CCC(c5cnc(N6CCc7[nH]c8nnc(-c9ccccc9O)cc8c7[C@H]6C)nc5)CC4)C3)C2)C(C)(C)C)cc1F [I-402],> 90%,> 100 nM,> 90%,10 to 50 nM,70 to 90%,1 to 10 nM,C (C (10-100 fold)),–,–,–
"C#Cc1cnc(CNC(=O)[C@@H]2C[C@@H](O)CN2C(=O)[C@@H](NC(=O)[C@H]2CCC3(CC2)C[C@H](N2CCC(c4cnc(N5CCN6c7cc(-c8ccccc8O)nnc7NC[C@H]6C5)nc4)CC2)C3)C(C)(C)C)c(OC)c1 (single isomer, unassigned) [I-298]",–,> 100 nM,–,10 to 50 nM,–,> 100 nM,D (D (<10 fold)),D (D (<50% degradation)),B (B (>70-90% degradation)),D (D (<50% degradation))
C#Cc1ccc(CNC(=O)[C@@H]2C[C@@H](O)CN2C(=O)[C@H](NC(=O)N2CC3(CC(N4CCC(c5cnc(N6CCc7[nH]c8nnc(-c9ccccc9O)cc8c7[C@H]6C)nc5)CC4)C3)C2)C(C)(C)CCN2CCN[C@@H](C(=O)O)C2)cc1 [I-341],< 50%,> 100 nM,< 50%,> 100 nM,< 50%,> 100 nM,C (C (10-100 fold)),–,–,–
"C#Cc1ccc(CNC(=O)[C@@H]2C[C@@H](O)CN2C(=O)[C@@H](NC(=O)[C@H]2CCC3(CC2)C[C@H](N2CCC(c4ccc(N5CCN6c7cc(-c8ccccc8O)nnc7NC[C@H]6C5)nc4)CC2)C3)C(C)(C)C)cc1 (single isomer, unassigned) [I-156]",–,10 to 100 nM,–,10 to 50 nM,–,1 to 10 nM,C (C (10-100 fold)),B (B (>70-90% degradation)),A (A (>90% degradation)),B (B (>70-90% degradation))
C#Cc1ccc(CNC(=O)[C@@H]2C[C@@H](O)CN2C(=O)[C@@H](NC(=O)N2CC3(CC(N4CCC(c5cnc(N6CCc7[nH]c8nnc(-c9ccccc9O)cc8c7[C@H]6C)nc5)CC4)C3)C2)C(C)(C)C)c(OCCCN(C)C)c1 [I-127],70 to 90%,> 100 nM,> 90%,> 100 nM,70 to 90%,10 to 100 nM,D (D (<10 fold)),–,–,–
"C#Cc1ccc([C@H](C)NC(=O)[C@@H]2C[C@@H](O)CN2C(=O)[C@@H](NC(=O)[C@H]2CCC3(CC2)C[C@H](N2CCN(c4cnc(N5CCN6c7cc(-c8ccccc8O)nnc7NC[C@H]6C5)nc4)CC2)C3)C(C)(C)C)cc1 (single isomer, unassigned) [I-234]",–,> 100 nM,–,50 to 100 nM,–,10 to 100 nM,C (C (10-100 fold)),C (C (50-70% degradation)),A (A (>90% degradation)),B (B (>70-90% degradation))
C#Cc1ccc([C@H](C)NC(=O)[C@@H]2C[C@@H](O)CN2C(=O)[C@@H](NC(=O)[C@H]2CC3(C2)C[C@H](c2cnc(N4CCC(N5CCN6c7cc(-c8ccccc8O)nnc7NC[C@H]6C5)CC4)nc2)C3)C(C)(C)C)cc1 (stereo partly drawn) [I-363],–,> 100 nM,–,10 to 50 nM,–,1 to 10 nM,C (C (10-100 fold)),–,–,–
C#Cc1ccc(CNC(=O)[C@@H]2C[C@@H](O)CN2C(=O)[C@H](NC(=O)N2CC3(CC(N4CCC(c5cnc(N6CCc7[nH]c8nnc(-c9ccccc9O)cc8c7[C@H]6C)nc5)CC4)C3)C2)C(C)(C)CCN2CCNCC2)cc1 [I-339],< 50%,> 100 nM,< 50%,> 100 nM,< 50%,> 100 nM,C (C (10-100 fold)),–,–,–
"C[C@H](NC(=O)[C@@H]1C[C@@H](O)CN1C(=O)[C@@H](NC(=O)[C@H]1CCC2(CC1)C[C@H](N1CCC(c3cnc(N4CCN5c6cc(-c7ccccc7O)nnc6NC[C@H]5C4)nc3)CC1)C2)C(C)(C)C)c1ccc(-c2ccnn2C)cc1 (single isomer, unassigned) [I-21]",> 90%,1 to 10 nM,> 90%,10 to 50 nM,> 90%,< 1 nM,C (C (10-100 fold)),–,–,–
C#Cc1ccc([C@H](C)NC(=O)[C@@H]2C[C@@H](O)CN2C(=O)[C@@H](NC(=O)N2CC3(CC(N4CCN(c5cnc(N6CCc7[nH]c8nnc(-c9ccccc9O)cc8c7[C@H]6C)nc5)CC4)C3)C2)C(C)(C)CCO)cc1 [I-369],70 to 90%,> 100 nM,> 90%,< 10 nM,> 90%,1 to 10 nM,C (C (10-100 fold)),–,–,–
"C#Cc1ccc(CNC(=O)[C@@H]2C[C@@H](O)CN2C(=O)[C@@H](NC(=O)N2CCC[C@@H](CN3CCC(N4CCC(N5CCN6c7cc(-c8ccccc8O)nnc7NC[C@H]6C5)CC4)CC3)C2)C(C)(C)C)cc1 (single isomer, unassigned) [I-253]",< 50%,> 100 nM,< 50%,> 100 nM,< 50%,> 100 nM,D (D (<10 fold)),–,–,–
C#Cc1ccc(CNC(=O)[C@@H]2C[C@@H](O)CN2C(=O)[C@@H](NC(=O)N2CC3(CC(N4CCC(c5cnc(N6CCc7[nH]c8nnc(-c9ccccc9O)cc8c7[C@H]6CC)nc5)CC4)C3)C2)C(C)(C)C)cc1 [I-136],70 to 90%,> 100 nM,> 90%,10 to 50 nM,70 to 90%,1 to 10 nM,C (C (10-100 fold)),–,–,–
"C#Cc1ccc2c(c1)OCC[C@@H]2NC(=O)[C@@H]1C[C@@H](O)CN1C(=O)[C@@H](NC(=O)N1CC2(CC(N3CCC(c4cnc(N5CCc6[nH]c7nnc(-c8ccccc8O)cc7c6[C@H]5C)nc4)CC3)C2)C1)C(C)(C)C (single isomer, unassigned) [I-235]",< 50%,> 100 nM,50 to 70%,> 100 nM,< 50%,> 100 nM,D (D (<10 fold)),–,–,–
C#Cc1ccc(CNC(=O)[C@@H]2C[C@@H](O)CN2C(=O)[C@@H](NC(=O)N2CCC[C@H](CN3CCC(N4CCC(N5CCN6c7cc(-c8ccccc8O)nnc7NC[C@H]6C5)CC4)CC3)C2)C(C)(C)C)cc1 [I-256],< 50%,> 100 nM,< 50%,> 100 nM,< 50%,> 100 nM,D (D (<10 fold)),–,–,–
